Reference: patent publication US7569695B2, “Dyes for the detection or quantification of desirable target molecules” (Enzo Life Sciences, Inc., priority 2005, dated 2009)

Experiments:
BSA = BSA (Bos taurus, UniProt P02769); assay: Fluorescence enhancement of dyes upon binding to a protein (BSA); conditions: ratio of fluorescence (emission maxima) with BSA vs without, 1 μM dye, 150 μg BSA; for Fluorescence Enhancement with SDS: 10 mM TRIS pH 7.5, 0.05% SDS; for Fluorescence Enhancement without SDS: 10 mM TRIS pH 7.5, no SDS
Description: Some of the dyes of the preceding examples were tested for changes in fluorescence upon binding to a protein (BSA). 1 μM of each dye was mixed with 150 μg of BSA in 10 mM TRIS (pH 7.5) with and without 0.05% SDS. Measurements were carried out on a standard fluorometer with and without BSA being present. Ratios were then calculated for the amount of fluorescence (emission maxima) in the presence of BSA compared to its absence.

[1] = test system: 78 bp amplicon from the anti-sense C construct; assay: Amplification of nucleic acids on the Light Cycler in the presence of dye (Example 33); assay type: biochemical
Description: A target template was amplified on the Light Cycler (Roche) in the presence of various amounts of Dye 109 from Example 14. As a control, various amounts of SYBR Green (Molecular Probes, Eugene, Oreg.) were also included. The template was a 1:500 dilution of a 78 bp amplicon made in a previous reaction from the anti-sense C construct described in Liu et al. 1997 (J. Virol. 71: 4079-4085). A 2×PCR mix was made up of 20 mM Tris pH 8.3, 50 mM KCl, 4 mM MgCl2, 0.4 mM dCTP, 0.4 mM dGTP, 0.4 mM dATP, 0.8 mM dUTP, […] and […].
The Forward Primer sequence is comprised of 20 nucleotides: 5′ […] 3′ (SEQ ID NO: 1). It is an artificial sequence comprising a fusion of human Ul and HIV sequences. Bases 1-7 (CATGATC) of the first sequence are derived from plasmid pHSD-4 and comprise sequences from the human Ul gene. Bases […] (GATCCGGATGGGAGGTG) of the second sequence are derived from a region of the BAL strain of HIV containing the Tat/Rev splice acceptor site.
The Reverse Primer sequence is comprised of 22 nucleotides: 5′[…] (SEQ ID NO: 2). It is an artificial sequence comprising a fusion of human Ul and HIV sequences. Bases 1-11 (GCACATCCGGA) of the first sequence are derived from plasmid pHSD-4 and comprise sequences from the human Ul gene. Bases […] (GATCCGGATGGGAGGTG) of the second sequence are derived from a region of the BAL strain of HIV containing the Tat/Rev splice acceptor site.
The 78 bp amplicon synthesized with Forward Primer (SEQ ID NO: 1) and Reverse Primer (SEQ ID NO: 2) has the following sequence: 5′ […] 3′ (SEQ ID NO: 3). It is an artificial sequence comprising a fusion of human Ul and HIV sequences. Bases 1-11 (GCACATCCGGA) and 68-78 (TCCGGATGTGC) are derived from plasmid pHSD-4 and comprise sequences from the human Ul gene. Bases […] are derived from a region of the BAL strain of HIV containing the Tat/Rev splice acceptor site.
A master mixture was made up of: • 350 µl of 2×PCR mix described above • 14 µl of 25 mM MgCl2 • 122.5 µl of DEPC treated H2O • 14 ul of 1 u/l ung (Epicentre) • 7 µl of 10 mg/ml BSA (New England Biolabs, Beverly, Mass.) • 7 l Taq polymease (Perkin Elmer)+7 µl of TaqStart (Clontech) • 2.5 µl of target template+2.0 l of various dilutions of dyes were added to 15.5 µl of Master mixture, incubated at 45° C. for 10 minutes and then amplified by: • 1) Melting • 2 minutes @ 95° C. • 2) Cycling • a) Denaturation step: 0 seconds @ 95° C. • b) Annealing step: 5 seconds @ 69° C. for first cycle; subsequent cycles were each reduced by 0.5° C. until 65° C. was reached and all annealing steps in further cycles were carried out at this temperature • c) Extension step: 5 seconds @ 72° C. • 3) After completion of 56 cycles, all samples were maintained at 4° C. until analyzed.
After the amplification reactions were finished, the samples were analyzed by gel electrophoresis. For SYBR Green, the recommended reaction concentration is 1:10,000. As such, the amplification products shown in lanes 5 and 6 using 2 l of […] dilution in a 20 l reaction (final=1:8,000) is approximately representative of the product from the standard procedure. For Dye 109, the reactions are listed in terms of dilutions of a stock of Dye 109 with an OD reading of 200 taken at 495 nm. […] However, when lower dilutions of the dyes were added there was no inhibition of the process.

[2] = test system: 78 bp amplicon from the anti-sense C construct; assay: Amplification of nucleic acids in the presence of dye using a standard PCR machine (Example 34); assay type: biochemical; conditions: for amplicon synthesis (gel analysis, FIG. 2): 20 cycles
Description: The experiment shown in Example 33 was repeated using a standard PCR machine for synthesis to see if the effects observed in Example 33 was dependent upon the rapid heating and cooling steps used in the Light Cycler.
A master mixture was made up of: • 500 µl of 2× PCR mix described in example 33 • 20 µl of 25 mM MgCl2 • 175 µl of DEPC treated H2O • 10 ul of 1 u/l ung (Epicentre) • 10 µl of 10 mg/ml BSA (New England Biolabs, Beverly, Mass.) • 10 l Taq polymease (Perkin Elmer)+10 µl of TaqStart (Clontech) PCR conditions were 2.5 µl of target template+2.0 l of dye was added to 15.5 µl of Master mixture incubated at 45° C. for 10 minutes and then amplified using cycles of: • a) 94° C. for 30 seconds • b) 65° C. for 30 seconds • c) 72° C. for 1 minute
A duplicate set of samples was amplified with one set being taken out after 20 cycles of amplification and the second set undergoing 40 cycles. […] The other effect previously observed was also seen, i.e. non-target amplicon synthesis seen in the no Dye reaction (lane 1) was reduced with the 1:200 dilution of SYBR Green and the 1:10 dilution of Dye 109 again repeating the results of Example 33.

Chain of BSA (P02769 25-607): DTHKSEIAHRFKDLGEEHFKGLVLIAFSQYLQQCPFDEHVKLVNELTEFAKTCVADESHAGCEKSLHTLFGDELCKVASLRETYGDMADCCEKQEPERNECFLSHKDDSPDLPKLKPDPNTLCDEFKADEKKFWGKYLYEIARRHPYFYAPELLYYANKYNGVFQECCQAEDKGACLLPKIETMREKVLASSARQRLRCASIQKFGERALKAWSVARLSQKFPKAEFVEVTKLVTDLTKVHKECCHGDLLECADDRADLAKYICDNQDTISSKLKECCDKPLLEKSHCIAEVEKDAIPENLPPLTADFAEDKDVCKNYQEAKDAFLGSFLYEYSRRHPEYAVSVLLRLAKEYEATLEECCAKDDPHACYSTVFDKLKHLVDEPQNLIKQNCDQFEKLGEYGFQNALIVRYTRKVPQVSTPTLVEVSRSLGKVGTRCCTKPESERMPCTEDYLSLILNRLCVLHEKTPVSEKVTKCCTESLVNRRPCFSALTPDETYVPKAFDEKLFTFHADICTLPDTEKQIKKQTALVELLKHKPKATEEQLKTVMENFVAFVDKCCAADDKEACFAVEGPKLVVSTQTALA

SMILES | Fluorescence Enhancement with SDS (BSA) | Fluorescence Enhancement without SDS (BSA) | also measured
CCOP(=O)(CCC[n+]1ccc(C=Cc2ccc3c(c2)c2ccccc2n3CC)c2ccccc21)OCC.[Br-] [Dye 116] | None | 12 | 
CCCCCCN(CCCCCC)c1ccc(C=Cc2sc3cc(S(=O)(=O)N(CCCCCC)CCCCCC)ccc3[n+]2C)cc1 [Dye 113] | 33 | None | 
CCCCN(CCCC)c1ccc(C=Cc2cc[n+](CCCP(=O)(OCC)OCC)c3ccccc23)cc1.[Br-] [Dye 119] | 92 | 95 | 
CCCCCCN(CCCCCC)c1ccc(C=Cc2sc3cc(S(=O)(=O)N4CCCCC4)ccc3[n+]2CCCCS(=O)(=O)[O-])cc1 [Dye 114] | 70 | 6 | 
C[n+]1c(/C=C/c2cc3c4c(c2)CCCN4CCC3)sc2cc(S(=O)(=O)N3CCCCC3)ccc21 [Dye 101] | 140 | 33 | 
CN(C)CCN(C)C1=C/C(=C\c2sc3cc(S(=O)(=O)N4CCCCC4)ccc3[n+]2C)c2ccccc2N1c1ccccc1 [Dye 109] |  |  | synthesis of target derived amplicons compared to the reaction without any dye ([1]; 1:25 dilution of Dye 109 stock (OD 200 at 495 nm), lanes 11 and 12): enhancement of overall synthesis of target derived amplicons; synthesis of non-target derived amplicons ([1]; 1:25 dilution of Dye 109 stock, lanes 11 and 12): elimination or suppression of the synthesis of non-target derived amplicons; detection of real time synthesis in the Light Cycler ([1]; data not shown): could be used for this purpose; amplification (gel analysis, FIG. 1) ([1]; undiluted Dye 109 stock (OD 200 at 495 nm), 56 cycles): strong inhibition of amplification; amplicon synthesis (gel analysis, FIG. 2) ([2]; 1:10 dilution of Dye 109, lanes 12 and 13): a single discrete band; amplicon synthesis (gel analysis, FIG. 2) ([2]; 1:15 dilution of Dye 109, lanes 14 and 15): lesser amounts of synthesis; amplicon synthesis (gel analysis, FIG. 2) ([2]; 1:20 and 1:25 dilutions of Dye 109, lanes 16/17 and 18/19): faint bands; non-target amplicon synthesis compared to the no Dye reaction ([2]; 40 cycles, 1:10 dilution of Dye 109): reduced
CCn1c2ccccc2c2cc(/C=C/c3sc4cc(S(=O)(=O)N5CCCCC5)ccc4[n+]3CCCCS(=O)(=O)[O-])ccc21 [Dye 103] | 10 | None | 
CCCCCCN(CCCCCC)c1ccc(C=Cc2cc[n+](CCCP(=O)(OCC)OCC)c3ccccc23)cc1.[Br-] [Dye 115] | 78 | 100 | 
